Data from patent publication US20250361230A1, “LATS Inhibitors and Uses Thereof” (The USA, as Represented by the Secretary, Dept. of Heath …, priority 2022, published 2025).

Legend:
Type in all cases: biochemical
LATS1 = molecular target: T1, LATS1 (Homo sapiens, UniProt O95835); assay: RBC HotSpot kinase assay (33P-ATP, P81 filter-binding), LATS1; settings: biochemical kinase inhibition; read-out: LATS1 IC50
T1 sequence (O95835 1-1130): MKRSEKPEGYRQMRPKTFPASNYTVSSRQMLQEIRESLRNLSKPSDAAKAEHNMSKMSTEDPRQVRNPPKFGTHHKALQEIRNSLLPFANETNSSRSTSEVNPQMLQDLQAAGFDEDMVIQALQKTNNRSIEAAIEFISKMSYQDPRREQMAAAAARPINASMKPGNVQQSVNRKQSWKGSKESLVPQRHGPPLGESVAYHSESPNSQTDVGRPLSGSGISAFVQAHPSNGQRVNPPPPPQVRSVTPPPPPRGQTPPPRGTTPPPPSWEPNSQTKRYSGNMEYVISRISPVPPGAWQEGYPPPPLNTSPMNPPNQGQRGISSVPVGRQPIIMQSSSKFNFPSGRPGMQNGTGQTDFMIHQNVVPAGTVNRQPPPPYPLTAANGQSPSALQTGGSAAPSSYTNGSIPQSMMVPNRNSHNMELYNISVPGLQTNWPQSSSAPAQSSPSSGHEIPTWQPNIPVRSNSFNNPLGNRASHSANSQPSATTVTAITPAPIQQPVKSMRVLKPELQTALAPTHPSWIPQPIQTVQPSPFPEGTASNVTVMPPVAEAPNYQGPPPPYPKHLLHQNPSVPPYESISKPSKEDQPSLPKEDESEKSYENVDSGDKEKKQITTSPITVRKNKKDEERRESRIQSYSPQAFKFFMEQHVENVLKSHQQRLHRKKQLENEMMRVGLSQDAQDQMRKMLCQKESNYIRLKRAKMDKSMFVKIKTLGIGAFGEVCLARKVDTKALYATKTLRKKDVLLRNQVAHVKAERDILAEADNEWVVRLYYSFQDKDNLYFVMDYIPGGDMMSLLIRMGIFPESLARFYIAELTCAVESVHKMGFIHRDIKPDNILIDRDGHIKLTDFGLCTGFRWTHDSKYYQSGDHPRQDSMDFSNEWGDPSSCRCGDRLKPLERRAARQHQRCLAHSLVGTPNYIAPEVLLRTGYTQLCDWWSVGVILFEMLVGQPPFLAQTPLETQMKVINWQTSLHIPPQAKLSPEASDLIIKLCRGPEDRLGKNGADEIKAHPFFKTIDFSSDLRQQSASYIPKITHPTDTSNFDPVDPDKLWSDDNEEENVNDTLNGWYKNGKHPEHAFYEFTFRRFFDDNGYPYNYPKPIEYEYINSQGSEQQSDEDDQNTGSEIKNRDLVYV
Summary of the method: (§1)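 Kinase in Hepes pH 7.5 buffer with Mg2+, EGTA, Brij35, BSA, vanadate, DTT and 1% DMSO, plus required cofactors and substrate, was preincubated 20 min at room temperature with compound. Reaction was started with 33P-ATP and run 2 h, then detected by P81 filter binding. IC50 (nM) came from 10-point singlet curves.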

LATS2 = molecular target: T2, LATS2 (Homo sapiens, UniProt Q9NRM7); assay: RBC HotSpot kinase assay (33P-ATP, P81 filter-binding), LATS2; settings: biochemical kinase inhibition; read-out: LATS2 IC50
T2 sequence (Q9NRM7 1-1088): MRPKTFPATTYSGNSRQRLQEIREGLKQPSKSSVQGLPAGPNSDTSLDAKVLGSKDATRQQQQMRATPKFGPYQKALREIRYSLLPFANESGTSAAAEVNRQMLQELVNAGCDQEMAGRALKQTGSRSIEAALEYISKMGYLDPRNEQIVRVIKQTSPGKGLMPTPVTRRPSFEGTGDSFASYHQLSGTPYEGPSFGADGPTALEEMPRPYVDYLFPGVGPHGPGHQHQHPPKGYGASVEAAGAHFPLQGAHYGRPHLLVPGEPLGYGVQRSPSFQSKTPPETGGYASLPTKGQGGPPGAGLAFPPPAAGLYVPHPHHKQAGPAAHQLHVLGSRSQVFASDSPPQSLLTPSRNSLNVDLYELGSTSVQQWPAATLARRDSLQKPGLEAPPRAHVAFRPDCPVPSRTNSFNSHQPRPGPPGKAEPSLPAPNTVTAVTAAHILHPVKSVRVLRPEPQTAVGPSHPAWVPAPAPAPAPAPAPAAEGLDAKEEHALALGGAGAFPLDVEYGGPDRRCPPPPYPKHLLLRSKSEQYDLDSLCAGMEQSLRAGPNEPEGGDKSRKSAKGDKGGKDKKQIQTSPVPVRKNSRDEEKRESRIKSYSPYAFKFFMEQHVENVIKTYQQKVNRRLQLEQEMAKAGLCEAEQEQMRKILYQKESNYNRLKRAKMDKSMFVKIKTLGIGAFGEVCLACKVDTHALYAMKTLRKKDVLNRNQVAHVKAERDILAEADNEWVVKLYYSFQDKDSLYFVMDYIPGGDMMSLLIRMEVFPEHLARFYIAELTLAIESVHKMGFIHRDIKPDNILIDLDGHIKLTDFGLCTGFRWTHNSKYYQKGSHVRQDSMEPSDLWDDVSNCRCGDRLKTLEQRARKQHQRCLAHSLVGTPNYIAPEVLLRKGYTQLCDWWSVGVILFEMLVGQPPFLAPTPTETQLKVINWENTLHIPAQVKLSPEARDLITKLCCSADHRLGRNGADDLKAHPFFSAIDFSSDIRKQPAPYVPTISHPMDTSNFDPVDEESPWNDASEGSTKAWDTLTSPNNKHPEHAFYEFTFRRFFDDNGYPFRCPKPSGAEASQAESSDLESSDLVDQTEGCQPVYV
Summary of the method: as §1

AKT = AKT (Homo sapiens, UniProt P31749); assay: RBC HotSpot kinase assay (33P-ATP, P81 filter-binding), AKT; settings: biochemical kinase inhibition; read-out: AKT IC50
Summary of the method: as §1

Sequence of AKT (P31749 whole entry): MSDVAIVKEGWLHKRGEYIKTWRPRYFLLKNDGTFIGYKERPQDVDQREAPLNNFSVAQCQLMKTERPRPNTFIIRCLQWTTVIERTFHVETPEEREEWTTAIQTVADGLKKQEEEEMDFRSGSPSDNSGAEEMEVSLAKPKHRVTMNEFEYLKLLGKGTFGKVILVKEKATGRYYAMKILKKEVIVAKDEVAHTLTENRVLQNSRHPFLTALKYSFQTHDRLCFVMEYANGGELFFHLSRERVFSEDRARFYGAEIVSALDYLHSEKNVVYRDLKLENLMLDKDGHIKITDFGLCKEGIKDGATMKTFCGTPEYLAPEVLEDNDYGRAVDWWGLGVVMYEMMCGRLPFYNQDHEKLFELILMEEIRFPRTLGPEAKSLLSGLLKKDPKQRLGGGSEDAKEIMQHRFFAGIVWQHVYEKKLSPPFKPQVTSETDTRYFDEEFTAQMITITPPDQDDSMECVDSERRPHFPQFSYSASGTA

Row | SMILES | IC50 (LATS1) [nM] | IC50 (LATS2) [nM] | IC50 (AKT) [nM]
1 | Cc1cc(-c2ccnc3[nH]cc(C#N)c23)cc(F)c1[C@@]1(O)[C@H](C)CN(C(=O)[C@H](N)CO)C[C@@H]1C [Compound 2007, 4-(4-((3S,4S,5R)-1-(D-seryl)-4-hydroxy-3,5-dimethylpiperidin-4-yl)-3-fluoro-5-methylphenyl)-1H-pyrrolo[2,3-b]pyridine-3-carbonitrile] | 8.5 | 5.3 | 159
2 | Cc1cc(-c2ccnc3[nH]cc(C#N)c23)cc(F)c1[C@@]1(O)[C@H](C)CN(C(=O)[C@](C)(N)CO)C[C@@H]1C [Compound 2008, 4-(4-((3S,4s,5R)-1-(2-amino-3-hydroxy-2-methylpropanoyl)-4-hydroxy-3,5-dimethylpiperidin-4-yl)-3-fluoro-5-methylphenyl)-1H-pyrrolo[2,3-b]pyridine-3-carbonitrile] | 5.2 | 5.5 | 262
3 | Cc1cc(-c2ccnc3[nH]cc(C#N)c23)cc(F)c1[C@@]1(O)[C@H](C)CN(C(=O)CNCC(F)(F)F)C[C@@H]1C [Compound 2014, 4-(3-fluoro-4-((3S,4s,5R)-4-hydroxy-3,5-dimethyl-1-((2,2,2-trifluoroethyl)glycyl)piperidin-4-yl)-5-methylphenyl)-1H-pyrrolo[2,3-b]pyridine-3-carbonitrile] | 7.1 | 6 | 3010
4 | Cc1cc(-c2ccnc3[nH]cc(C#N)c23)cc(F)c1[C@@]1(O)[C@H](C)CN(C(=O)C(N)C(F)(F)F)C[C@@H]1C (stereo partly drawn) [Compound 2017, 4-(4-((3S,4s,5R)-1-(2-amino-3,3,3-trifluoropropanoyl)-4-hydroxy-3,5-dimethylpiperidin-4-yl)-3-fluoro-5-methylphenyl)-1H-pyrrolo[2,3-b]pyridine-3-carbonitrile] | 8.2 | 6.9 | 2050
5 | Cc1cc(-c2ccnc3[nH]cc(C#N)c23)cc(F)c1[C@@]1(O)[C@H](C)CN(C(=O)[C@H](CO)N(C)C)C[C@@H]1C [Compound 2023, 4-(4-((3S,4R,5R)-1-(dimethyl-L-seryl)-4-hydroxy-3,5-dimethylpiperidin-4-yl)-3-fluoro-5-methylphenyl)-1H-pyrrolo[2,3-b]pyridine-3-carbonitrile] | 4.4 | 2.9 | 388
6 | Cc1cc(-c2ccnc3[nH]cc(C#N)c23)cc(F)c1[C@@]1(O)[C@H](C)CNC[C@@H]1C [Compound 2024, 4-(3-fluoro-4-((3S,4s,5R)-4-hydroxy-3,5-dimethylpiperidin-4-yl)-5-methylphenyl)-1H-pyrrolo[2,3-b]pyridine-3-carbonitrile] | 6.6 | 4.2 | 334

Now from value to molecule:

Row | IC50 (LATS1) [nM] | IC50 (LATS2) [nM] | IC50 (AKT) [nM] | SMILES
7 | 25 | 16 | 1030 | Cc1cc(-c2ccnc3[nH]cc(C#N)c23)cc(F)c1[C@@]1(O)[C@H](C)CN(C(=O)[C@H](C)N)C[C@@H]1C [Compound 2011, 4-(4-((3S,4R,5R)-1-(L-alanyl)-4-hydroxy-3,5-dimethylpiperidin-4-yl)-3-fluoro-5-methylphenyl)-1H-pyrrolo[2,3-b]pyridine-3-carbonitrile]
8 | 5 | 2.9 | 349 | CNCC(=O)N1C[C@@H](C)[C@](O)(c2c(C)cc(-c3ccnc4[nH]cc(C#N)c34)cc2F)[C@@H](C)C1 [Compound 2012, 4-(3-fluoro-4-((3S,4s,5R)-4-hydroxy-3,5-dimethyl-1-(methylglycyl)piperidin-4-yl)-5-methylphenyl)-1H-pyrrolo[2,3-b]pyridine-3-carbonitrile]
9 | 4 | 2 | 236 | Cc1cc(-c2ccnc3[nH]cc(C#N)c23)cc(F)c1[C@@]1(O)[C@H](C)CN(C(=O)[C@@H](C)N)C[C@@H]1C [Compound 2015, 4-(4-((3S,4S,5R)-1-(D-alanyl)-4-hydroxy-3,5-dimethylpiperidin-4-yl)-3-fluoro-5-methylphenyl)-1H-pyrrolo[2,3-b]pyridine-3-carbonitrile]
